Patent US8058475B2, “Substituted cyclohexylmethyl compounds” (Gruenenthal GmbH, priority 2005, dated 2011)
pKi: −log10 of the molar value. Structures can show the parent of a compound that is named as a salt. Where two headings read alike, the source gives them in different places. One block for each compound: values may come before it.

Key:
Serotonin (5HT) reuptake = biological target: T1, Serotonin (5HT) reuptake (Rattus norvegicus, UniProt P31652); test: Serotonin (5HT) reuptake inhibition in rat brain synaptosomes (P2 fraction); assay type: biochemical; settings: for inhibition at 10 µM: read-out: Serotonin reuptake, % inhibition [10 μM]
T1 construct: synaptosomes are freshly isolated from areas of rat brain; from tissue; host or cells: rat brain synaptosomes (P2 fraction)
Procedure, shortened: (§1)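 Freshly isolated rat brain synaptosomes (P2 fraction, Gray–Whittaker method) used for uptake; for NA uptake the particles came from hypothalamus of male rats.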

[1] = biological target: T2, Noradrenaline (NA) reuptake (Rattus norvegicus, UniProt Q63380); test: Noradrenaline (NA) reuptake inhibition in rat brain synaptosomes (hypothalamus, P2 fraction); assay type: biochemical
T2 construct: synaptosomes are freshly isolated from areas of rat brain; from tissue; host or cells: rat hypothalamus synaptosomes (P2 fraction)
Procedure, shortened: as §1

mouse = test: In vivo studies of analgesia: tail-flick test in the mouse; settings: iv; for % maximum possible antinociceptive effect at 10 mg/kg: dose 10 mg/kg (i.v.); for % maximum possible antinociceptive effect at 21.5 mg/kg: dose 21.5 mg/kg (i.v.)
Description: In vivo Studies of Analgesia: Tail-flick Test in the Mouse
The mice were each placed individually into a test cage and the base of the tail was exposed to the focused heat ray of an electric lamp (tail-flick type 50/08/1.bc, Labtec, Dr. Hess). The intensity of the lamp was adjusted so that the time from switching on of the lamp to the sudden twitching away of the tail (latency of pain) in untreated mice was from 3 to 5 seconds. Before administration of the solutions comprising the compound according to the invention, or of the particular comparison solutions, the mice were pre-tested twice in the course of five minutes and the mean of these measurements was calculated as the pre-test mean.
The solutions of the compound of the general formula I according to the invention and the comparison solutions were then administered intravenously.
Pain measurement was carried out in each case 10, 20, 40 and 60 minutes following the intravenous administration. The analgesic activity was determined as the increase in the latency of pain (% of the maximum possible antinociceptive effect) according to the following formula: [(T1−T0)/(T2−T0)]×100 where time T0 is the latency before administration, time T1 is the latency after administration of the active ingredient combination and time T2 is the maximum exposure time (12 seconds).
The in-depth study of analgesic activity was carried out in the tail-flick test in the mouse, as described above.

human μ-opiate receptor = human μ-opiate receptor (Homo sapiens, UniProt P35372); test: Affinity for the human μ-opiate receptor ([3H]-naloxone displacement, SPA, CHO-K1 membrane preparation); assay type: binding; settings: for inhibition at 1 µM: read-out: μ-Opioid receptor, % inhibition [1 μM]; for pKi: read-out: μ-Opioid receptor, Ki
[2] = read-out: NA reuptake, % inhibition [10 μM]
[3] = 1 μM test substance, inhibition of specific [3H]-naloxone binding
[4] = read-out: Na reuptake, % inhibition [10 μM]

T1 sequence (P31652 whole entry): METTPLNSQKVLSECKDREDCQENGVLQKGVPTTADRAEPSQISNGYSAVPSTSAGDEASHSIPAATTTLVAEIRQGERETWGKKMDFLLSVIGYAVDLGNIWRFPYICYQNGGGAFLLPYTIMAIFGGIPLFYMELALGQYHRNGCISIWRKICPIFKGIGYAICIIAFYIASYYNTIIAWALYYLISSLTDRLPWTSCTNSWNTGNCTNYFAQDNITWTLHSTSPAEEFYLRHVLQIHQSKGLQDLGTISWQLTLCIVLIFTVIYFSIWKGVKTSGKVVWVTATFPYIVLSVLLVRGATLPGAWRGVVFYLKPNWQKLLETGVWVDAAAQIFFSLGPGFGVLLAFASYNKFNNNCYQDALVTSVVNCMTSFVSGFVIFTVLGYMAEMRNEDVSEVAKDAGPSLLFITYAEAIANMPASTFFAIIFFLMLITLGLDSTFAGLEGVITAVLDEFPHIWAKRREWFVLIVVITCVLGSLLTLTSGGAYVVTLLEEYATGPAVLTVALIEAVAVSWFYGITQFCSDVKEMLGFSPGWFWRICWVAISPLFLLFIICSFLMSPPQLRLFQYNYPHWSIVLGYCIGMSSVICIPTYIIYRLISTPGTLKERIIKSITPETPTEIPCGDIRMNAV
Chain of human μ-opiate receptor (P35372 whole entry): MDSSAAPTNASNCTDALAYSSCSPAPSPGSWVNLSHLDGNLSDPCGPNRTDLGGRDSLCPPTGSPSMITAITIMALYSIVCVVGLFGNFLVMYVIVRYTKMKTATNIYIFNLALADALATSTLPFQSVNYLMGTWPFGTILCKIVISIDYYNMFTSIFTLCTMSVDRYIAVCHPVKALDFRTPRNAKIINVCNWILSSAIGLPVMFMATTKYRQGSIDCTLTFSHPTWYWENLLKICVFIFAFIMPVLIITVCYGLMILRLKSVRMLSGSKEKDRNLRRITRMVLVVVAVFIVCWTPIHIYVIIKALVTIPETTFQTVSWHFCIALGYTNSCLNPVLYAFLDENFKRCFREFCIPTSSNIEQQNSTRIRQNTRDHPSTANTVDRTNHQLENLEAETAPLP
T2 sequence (Q63380 1-617): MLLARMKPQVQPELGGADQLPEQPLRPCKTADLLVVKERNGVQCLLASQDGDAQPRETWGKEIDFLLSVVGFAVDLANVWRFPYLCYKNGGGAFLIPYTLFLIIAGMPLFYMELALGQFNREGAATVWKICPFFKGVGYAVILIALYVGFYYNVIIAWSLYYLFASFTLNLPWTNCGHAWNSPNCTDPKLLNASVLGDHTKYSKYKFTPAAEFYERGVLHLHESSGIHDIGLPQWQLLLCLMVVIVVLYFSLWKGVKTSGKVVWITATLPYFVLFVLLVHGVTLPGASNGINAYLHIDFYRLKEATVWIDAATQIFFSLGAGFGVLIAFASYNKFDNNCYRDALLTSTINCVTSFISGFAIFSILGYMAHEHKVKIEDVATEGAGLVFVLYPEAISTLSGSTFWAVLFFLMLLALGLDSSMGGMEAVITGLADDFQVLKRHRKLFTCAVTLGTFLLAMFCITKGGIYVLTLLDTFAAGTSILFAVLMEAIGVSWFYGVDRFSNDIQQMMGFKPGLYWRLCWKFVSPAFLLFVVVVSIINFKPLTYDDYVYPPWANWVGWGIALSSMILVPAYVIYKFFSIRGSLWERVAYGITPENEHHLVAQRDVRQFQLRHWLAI

melting point: 110 to 115 °C
Compound: CN(C)C(c1ccccc1)C1CCC(=NO)CC1 (stereo not drawn)

melting point: 118 to 121 °C
Compound: CN(C)C(c1cccs1)C1CCC(=NO)CC1 (stereo not drawn)

Compound: CN(C)C(c1ccccc1)[C@H]1CC[C@H](CCc2ccccc2)CC1 (relative stereo) [compound 146, trans-N,N-dimethyl(4-phenethylcyclohexyl)(phenyl)methanamine hydrochloride]
pKi (Serotonin (5HT) reuptake): 6.82
inhibition at 10 µM (Serotonin (5HT) reuptake): 92%
pKi [1]: 6.22
inhibition at 10 µM [1, 2]: 94%
% maximum possible antinociceptive effect at 10 mg/kg (mouse; read-out: Activity % MPE): 21%
inhibition at 1 µM (human μ-opiate receptor; [3]): 97%

Compound: CN(C)C(c1ccccc1)C1CCC(NC(=O)Nc2ccccc2)CC1.Cl (stereo not drawn) [compound 78, 1-(4-((dimethylamino)(phenyl)methyl)cyclohexyl)-3-phenylurea hydrochloride]
pKi (Serotonin (5HT) reuptake): 6.80
inhibition at 10 µM (Serotonin (5HT) reuptake): 87%
pKi [1]: 6.54
inhibition at 10 µM [1, 2]: 98%
ED50 (mouse; head prints (4.64-21.5)): 8.94 mg/kg
inhibition at 1 µM (human μ-opiate receptor; [3]): 91%
pKi (human μ-opiate receptor): 7.27

Compound: CN(C)C(c1ccccc1)C1CCC(NC(=O)NCc2ccccc2)CC1 (stereo not drawn) [compound 79, 1-benzyl-3-(4-((dimethylamino)(phenyl)methyl)cyclohexyl)urea]
pKi (Serotonin (5HT) reuptake): 7.04
inhibition at 10 µM (Serotonin (5HT) reuptake): 97%
pKi [1]: 6.92
inhibition at 10 µM [1, 2]: 96%
% maximum possible antinociceptive effect at 10 mg/kg (mouse; read-out: Activity % MPE): 76%
inhibition at 1 µM (human μ-opiate receptor; [3]): 103%
pKi (human μ-opiate receptor): 8.08

Compound: CN(C)C(c1ccccc1)C1CCC(NC(=O)NC2CCCCC2)CC1 (stereo not drawn) [compound 80, 1-cyclohexyl-3-(4-((dimethylamino)(phenyl)methyl)cyclohexyl)urea]
pKi (Serotonin (5HT) reuptake): 6.60
inhibition at 10 µM (Serotonin (5HT) reuptake): 97%
pKi [1]: 6.31
inhibition at 10 µM [1, 2]: 97%
% maximum possible antinociceptive effect at 10 mg/kg (mouse; read-out: Activity % MPE): 59%
inhibition at 1 µM (human μ-opiate receptor; [3]): 95%
pKi (human μ-opiate receptor): 7.70

Compound: CN(C)C(c1ccccc1)C1CCC(NCc2ccccc2)CC1 (stereo not drawn) [compound 86, N-benzyl-4-((dimethylamino)(phenyl)methyl)cyclohexanamine hydrochloride]
inhibition at 10 µM (Serotonin (5HT) reuptake): 88%
inhibition at 10 µM [1, 2]: 95%
% maximum possible antinociceptive effect at 21.5 mg/kg (mouse; read-out: Activity % MPE): 100%
inhibition at 1 µM (human μ-opiate receptor; [3]): 98%
pKi (human μ-opiate receptor): 8.42

Compound: CN(C)C(c1ccccc1)C1CCC(NCCCCc2ccccc2)CC1 (stereo not drawn) [compound 87, 4-((dimethylamino)(phenyl)methyl)-N-(4-phenylbutyl)cyclohexanamine hydrochloride]
inhibition at 10 µM (Serotonin (5HT) reuptake): 95%
inhibition at 10 µM [1, 2]: 106%
% maximum possible antinociceptive effect at 10 mg/kg (mouse; read-out: Activity % MPE): 39%
inhibition at 1 µM (human μ-opiate receptor; [3]): 85%
pKi (human μ-opiate receptor): 8.43

Compound: CC(Cc1c[nH]c2ccccc12)NC1CCC(C(c2ccccc2)N(C)C)CC1 (stereo not drawn) [compound 88, N-(1-(1H-indol-3-yl)propan-2-yl)-4-((dimethylamino)(phenyl)methyl)-cyclohexanamine hydrochloride]
inhibition at 10 µM (Serotonin (5HT) reuptake): 88%
inhibition at 10 µM [1, 2]: 84%
% maximum possible antinociceptive effect at 21.5 mg/kg (mouse; read-out: Activity % MPE): 90%
inhibition at 1 µM (human μ-opiate receptor; [3]): 99%
pKi (human μ-opiate receptor): 8.62

Compound: CN(C)C(c1ccccc1)C1CCC(NCc2ccc(F)cc2)CC1 (stereo not drawn) [compound 91, 4-((dimethylamino)(phenyl)methyl)-N-(4-fluorobenzyl)cyclohexanamine hydrochloride]
inhibition at 10 µM (Serotonin (5HT) reuptake): 76%
inhibition at 10 µM [1, 2]: 93%
% maximum possible antinociceptive effect at 21.5 mg/kg (mouse; read-out: Activity % MPE): 90%
inhibition at 1 µM (human μ-opiate receptor; [3]): 90%
pKi (human μ-opiate receptor): 8.09

Compound: CC(=O)N(CCCc1ccccc1)C1CCC(C(c2ccccc2)N(C)C)CC1 (stereo not drawn) [compound 95, N-(4-((dimethylamino)(phenyl)methyl)cyclohexyl)-N-(3-phenylpropyl)acetamide hydrochloride]
inhibition at 10 µM (Serotonin (5HT) reuptake): 66%
inhibition at 10 µM [1, 4]: 80%
% maximum possible antinociceptive effect at 1 mg/kg (mouse; dose 1 mg/kg (i.v.), read-out: Activity % MPE): 100%
inhibition at 1 µM (human μ-opiate receptor): 95%
pKi (human μ-opiate receptor): 8.60

Compound: CC(=O)N(CCCCc1ccccc1)C1CCC(C(c2ccccc2)N(C)C)CC1 (stereo not drawn) [compound 98, N-(4-((dimethylamino)(phenyl)methyl)cyclohexyl)-N-(4-phenylbutyl)-acetamide hydrochloride]
pKi (Serotonin (5HT) reuptake): 6.20
inhibition at 10 µM (Serotonin (5HT) reuptake): 74%
pKi [1]: 6.15
inhibition at 10 µM [1, 4]: 95%
% maximum possible antinociceptive effect at 10 mg/kg (mouse; read-out: Activity % MPE): 100%
inhibition at 1 µM (human μ-opiate receptor): 104%

Compound: CCCC(=O)N(Cc1ccccc1)C1CCC(C(c2ccccc2)N(C)C)CC1 (stereo not drawn) [compound 102, N-benzyl-N-(4-((dimethylamino)(phenyl)methyl)cyclohexyl)butyramide hydrochloride]
pKi (Serotonin (5HT) reuptake): 6.35
inhibition at 10 µM (Serotonin (5HT) reuptake): 85%
pKi [1]: 6.89
inhibition at 10 µM [1, 4]: 92%
% maximum possible antinociceptive effect at 10 mg/kg (mouse; read-out: Activity % MPE): 82%
inhibition at 1 µM (human μ-opiate receptor): 94%
pKi (human μ-opiate receptor): 8.82

Compound: CCOC(=O)CCC1CCC(C(c2ccc(F)cc2)N(C)C)CC1 (stereo not drawn) [compound 136, 3-{4-[dimethylamino-(4-fluorophenyl)-methyl]-cyclohexyl}-propionic acid ethyl ester]
pKi (Serotonin (5HT) reuptake): 7.08
inhibition at 10 µM (Serotonin (5HT) reuptake): 86%
pKi [1]: 6.24
inhibition at 10 µM [1, 2]: 89%
inhibition at 1 µM (human μ-opiate receptor; [3]): 73%
pKi (human μ-opiate receptor): 6.64

Compound: CN(C)C(c1ccc(F)cc1)C1CCC(CCCO)CC1 (stereo not drawn) [compound 137, 3-{4-[dimethylamino-(4-fluorophenyl)-methyl]-cyclohexyl}-propan-1-ol]
inhibition at 10 µM (Serotonin (5HT) reuptake): 89%
inhibition at 10 µM [1, 2]: 93%
inhibition at 1 µM (human μ-opiate receptor; [3]): 13%

Compound: CCOC(=O)C=CC1CCC(C(c2cccc(F)c2)N(C)C)CC1 (stereo not drawn) [compound 138, 3-{4-[dimethylamino-(3-fluorophenyl)-methyl]-cyclohexyl}-acrylic acid ethyl ester]
pKi (Serotonin (5HT) reuptake): 6.51
inhibition at 10 µM (Serotonin (5HT) reuptake): 84%
pKi [1]: 6.21
inhibition at 10 µM [1, 2]: 96%
inhibition at 1 µM (human μ-opiate receptor; [3]): 73%
pKi (human μ-opiate receptor): 7.04

Compound: CCOC(=O)CCC1CCC(C(c2cccc(F)c2)N(C)C)CC1 (stereo not drawn) [compound 139, 3-{4-[dimethylamino-(3-fluorophenyl)-methyl]-cyclohexyl}-propionic acid ethyl ester]
pKi (Serotonin (5HT) reuptake): 7.24
inhibition at 10 µM (Serotonin (5HT) reuptake): 89%
pKi [1]: 6.10
inhibition at 10 µM [1, 2]: 94%
inhibition at 1 µM (human μ-opiate receptor; [3]): 90%
pKi (human μ-opiate receptor): 7.36

Compound: CN(C)C(c1cccc(F)c1)C1CCC(CCCO)CC1 (stereo not drawn) [compound 140, 3-{4-[dimethylamino-(3-fluorophenyl)-methyl]-cyclohexyl}-propan-1-ol]
inhibition at 10 µM (Serotonin (5HT) reuptake): 85%
inhibition at 10 µM [1, 2]: 94%
inhibition at 1 µM (human μ-opiate receptor; [3]): 31%

Compound: CN(C)C(CCc1ccccc1)C1CCC(CCCO)CC1 (stereo not drawn) [compound 143, 3-[4-(1-dimethylamino-3-phenyl-propyl)-cyclohexyl]-propan-1-ol]
inhibition at 10 µM (Serotonin (5HT) reuptake): 90%
inhibition at 10 µM [1, 2]: 100%
inhibition at 1 µM (human μ-opiate receptor; [3]): 24%

Compound: CN(C)C(c1ccccc1)C1CCC(OCc2ccccc2)CC1 (stereo not drawn) [compound 144, 4-(benzyloxy)cyclohexyl)-N,N-dimethyl(phenyl)methanamine hydrochloride]
inhibition at 10 µM (Serotonin (5HT) reuptake): 80%
inhibition at 10 µM [1, 2]: 75%
inhibition at 1 µM (human μ-opiate receptor; [3]): 81%
pKi (human μ-opiate receptor): 6.92

Compound: CN(C)C(c1ccccc1)C1CCC(OCc2ccc(F)cc2)CC1 (stereo not drawn) [compound 145, 4-(4-fluorobenzyloxy)cyclohexyl)-N,N-dimethyl(phenyl)methanamine hydrochloride]
pKi (Serotonin (5HT) reuptake): 6.54
inhibition at 10 µM (Serotonin (5HT) reuptake): 83%
inhibition at 10 µM [1, 2]: 84%
inhibition at 1 µM (human μ-opiate receptor; [3]): 73%
pKi (human μ-opiate receptor): 6.51

Compound: CN(C)C(c1ccccc1)C1CCC(O)(Cc2ccc(F)cc2)CC1 (stereo not drawn) [compound 148, 4-((dimethylamino)(phenyl)methyl)-1-(4-fluorobenzyl)cyclohexanol hydrochloride]
pKi (Serotonin (5HT) reuptake): 6.43
inhibition at 10 µM (Serotonin (5HT) reuptake): 90%
inhibition at 10 µM [1, 2]: 97%
% maximum possible antinociceptive effect at 10 mg/kg (mouse; read-out: Activity % MPE): 40%
inhibition at 1 µM (human μ-opiate receptor; [3]): 91%

Compound: COc1ccc(OC)c(C2(O)CCC(C(c3ccccc3)N(C)C)CC2)c1 (stereo not drawn) [compound 149, 1-(2,5-Dimethoxyphenyl)-4-((dimethylamino)(phenyl)methyl)cyclohexanol hydrochloride]
inhibition at 10 µM (Serotonin (5HT) reuptake): 85%
inhibition at 10 µM [1, 2]: 75%
inhibition at 1 µM (human μ-opiate receptor; [3]): 82%
